“And” between values parts separate entries of the source, which are not always exact repeats. Equal values may be shown once.
Biological target: T1, human TAS2R14 (Homo sapiens, UniProt Q9NYV8)
T1 construct: expressed in transfected cells; host or cells: HEK293T-Gα16gust44
T1 sequence (Q9NYV8 1-317): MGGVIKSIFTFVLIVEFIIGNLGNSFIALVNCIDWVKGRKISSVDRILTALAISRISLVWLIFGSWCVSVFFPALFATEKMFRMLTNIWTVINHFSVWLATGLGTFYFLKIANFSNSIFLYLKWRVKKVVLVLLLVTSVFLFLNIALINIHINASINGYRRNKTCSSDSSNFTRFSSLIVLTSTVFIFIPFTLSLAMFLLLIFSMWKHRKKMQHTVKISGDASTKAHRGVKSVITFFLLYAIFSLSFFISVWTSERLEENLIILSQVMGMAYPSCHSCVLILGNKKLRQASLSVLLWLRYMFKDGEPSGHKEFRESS
Assay: Calcium imaging assay (FLIPR), HEK293T-Gα16gust44 cells transfected with human TAS2R14
Format: cell-based
Details: for RLU: TAS2R14 trace
Protocol: This set of bile acids was chosen because of their commercial availability in high purities, their diversity within the class of bile acids and their previous detection and quantitation in human blood. Stock solutions were prepared in DMSO.
As basal growth medium for the HEK293T-Gα16gust44 cell line[17],[59] served Dulbecco’s modified eagle medium (DMEM) (Thermo Fisher Scientific, Darmstadt, Germany) supplemented with 10 % fetal bovine serum (Sigma-Aldrich, Steinheim, Germany), 2 mM L-glutamine (Sigma-Aldrich, Steinheim, Germany), 100 units/ml penicillin (Sigma Aldrich, Steinheim, Germany) and 100 µg/ml streptomycin (Sigma Aldrich, Steinheim, Germany). Growth conditions were 37 °C, 5 % CO2 and saturated air-humidity[60].
HEK293T-Gα16gust44 cells were seeded on poly-D-lysine (10 µg/ml) coated 96-well plates to reach a confluence of 40-60 % the next day. For transient transfection 150 ng of plasmid DNA containing the receptor of interest and 0.3 µl lipofectamine 2000 (Thermo Fisher Scientific, Darmstadt, Germany) per well were used and transfection took place according to the manual of lipofectamine 2000. […] The empty vector DNA (mock) was transfected as negative control[14],[41].
Cells were loaded using the calcium-sensitive fluorescent dye Fluo-4-AM (Abcam, Cambridge, Great Britain) in the presence of 2.5 mM probenecid (Sigma-Aldrich, Steinheim, Germany) the day after transfection[13],[41]. 1 h after loading, cells were washed with C1 buffer using a BioTek Cell Washer, incubated in the dark for half an hour and washed again. For automated agonist application and measurement of fluorescence changes, a FLIPR^TETRA device (Molecular Devices, San José, United States) was used. Viability of cells was tested by application of 100 nM Somatostatin 14 (Bachem, Bubendorf, Switzerland)[42].
Measured data were negative control corrected by subtracting the signal of the mock-transfected cells and exported to Microsoft Excel using the FLIPR software ScreenWorks 4.2. In Microsoft Excel software, standardization of maximum fluorescence intensities to the basal fluorescence and normalization to the buffer-only control was done to calculate the relative fluorescence changes (ΔF/F).
Initial screening experiments performed in duplicate wells were confirmed by at least one replication and representative traces were selected for display. All dose-response relationships were determined by three independent experiments (biological replicates) performed in duplicates (technical replicates). Threshold concentrations, defined as lowest substance concentrations leading to statistically significant elevated fluorescence changes in receptor-transfected cells compared with empty vector-transfected cells, were determined using SigmaPlot with Student’s t-test to evaluate statistical significance (p < 0.01).

C[C@H](CCC(=O)O)[C@H]1CC[C@H]2[C@@H]3[C@H](O)C[C@@H]4C[C@H](O)CC[C@]4(C)[C@H]3C[C@H](O)[C@]12C [Cholic Acid, cholic acid]
Efficacy = maximal amplitude (ΔF/F) (TAS2R14, bile acids, mean): 0.2451 | Efficacy (maximal amplitude ΔF/F), individual data points (TAS2R14, bile acids, single replicates, listed as CA): 0.2582 and 0.2878 and 0.1894 | RLU (Time (s) 0): 0 RLU | RLU (Time (s) 2 (Taurocholic Acid 2.016)): 8.733 RLU | RLU (Time (s) 4 (Taurocholic Acid 4.016)): -17.1002 RLU | RLU (Time (s) 6 (Taurocholic Acid 6.016)): -14.5682 RLU | RLU (Time (s) 8 (Taurocholic Acid 8.016)): -36.4848 RLU | RLU (Time (s) 12 (Taurocholic Acid 12.016)): -26.3442 RLU | RLU (Time (s) 14 (Taurocholic Acid 14.016)): -33.528 RLU | RLU (Time (s) 16 (Taurocholic Acid 16.016)): -31.0627 RLU | RLU (Time (s) 18 (Taurocholic Acid 18.016)): -30.2662 RLU | RLU (Time (s) 18.797 (Chenodeoxycholic Acid 18.765)): -22.7559 RLU | RLU (Time (s) 20.797 (Chenodeoxycholic Acid 20.781)): -44.5987 RLU | RLU (Time (s) 22.797 (Chenodeoxycholic Acid 22.781)): 9.863 RLU | RLU (Time (s) 24.797 (Chenodeoxycholic Acid 24.781)): -6.39 RLU | RLU (Time (s) 26.797 (Chenodeoxycholic Acid 26.781)): 16.5716 RLU | RLU (Time (s) 28.797 (Chenodeoxycholic Acid 28.781)): 41.6203 RLU | RLU (Time (s) 30.797 (Chenodeoxycholic Acid 30.781)): 60.9467 RLU | RLU (Time (s) 32.797 (Chenodeoxycholic Acid 32.781)): 99 RLU | RLU (Time (s) 34.797 (Chenodeoxycholic Acid 34.781)): 154.774 RLU | RLU (Time (s) 36.797 (Chenodeoxycholic Acid 36.781)): 189.099 RLU | RLU (Time (s) 38.797 (Chenodeoxycholic Acid 38.781)): 207.548 RLU | RLU (Time (s) 40.797 (Chenodeoxycholic Acid 40.781)): 286.95 RLU | RLU (Time (s) 42.797 (Chenodeoxycholic Acid 42.781)): 332.949 RLU | RLU (Time (s) 44.797 (Chenodeoxycholic Acid 44.781)): 381.413 RLU | RLU (Time (s) 46.797 (Chenodeoxycholic Acid 46.781)): 432.303 RLU | RLU (Time (s) 48.797 (Chenodeoxycholic Acid 48.781)): 481.551 RLU | RLU (Time (s) 50.797 (Chenodeoxycholic Acid 50.781)): 522.709 RLU | RLU (Time (s) 52.797 (Chenodeoxycholic Acid 52.781)): 573.985 RLU | RLU (Time (s) 54.797 (Chenodeoxycholic Acid 54.781)): 600.804 RLU | RLU (Time (s) 56.797 (Chenodeoxycholic Acid 56.781)): 603.138 RLU | RLU (Time (s) 58.797 (Chenodeoxycholic Acid 58.781)): 677.301 RLU | RLU (Time (s) 60.797 (Chenodeoxycholic Acid 60.781)): 689.232 RLU | RLU (Time (s) 62.797 (Chenodeoxycholic Acid 62.781)): 740.761 RLU | RLU (Time (s) 64.797 (Chenodeoxycholic Acid 64.781)): 760.673 RLU | RLU (Time (s) 66.797 (Chenodeoxycholic Acid 66.781)): 793.47 RLU | RLU (Time (s) 68.797 (Chenodeoxycholic Acid 68.781)): 795.682 RLU | RLU (Time (s) 70.797 (Chenodeoxycholic Acid 70.781)): 846.508 RLU | RLU (Time (s) 72.797 (Chenodeoxycholic Acid 72.781)): 873.655 RLU | RLU (Time (s) 74.797 (Chenodeoxycholic Acid 74.781)): 945.307 RLU | RLU (Time (s) 76.797 (Chenodeoxycholic Acid 76.781)): 951.601 RLU | RLU (Time (s) 78.797 (Chenodeoxycholic Acid 78.781)): 969.484 RLU | RLU (Time (s) 80.797 (Chenodeoxycholic Acid 80.781)): 1026.08 RLU | RLU (Time (s) 82.797 (Chenodeoxycholic Acid 82.781)): 1051.68 RLU | RLU (Time (s) 84.797 (Chenodeoxycholic Acid 84.781)): 1028.13 RLU | RLU (Time (s) 86.797 (Chenodeoxycholic Acid 86.781)): 1075.38 RLU | RLU (Time (s) 88.797 (Chenodeoxycholic Acid 88.781)): 1071.24 RLU | RLU (Time (s) 90.797 (Chenodeoxycholic Acid 90.781)): 1092.31 RLU | RLU (Time (s) 92.797 (Chenodeoxycholic Acid 92.781)): 1143.7 RLU | RLU (Time (s) 94.797 (Chenodeoxycholic Acid 94.781)): 1154.9 RLU | RLU (Time (s) 96.797 (Chenodeoxycholic Acid 96.781)): 1163.63 RLU | RLU (Time (s) 98.797 (Chenodeoxycholic Acid 98.781)): 1184.89 RLU | RLU (Time (s) 100.797 (Chenodeoxycholic Acid 100.781)): 1211.25 RLU | RLU (Time (s) 102.797 (Chenodeoxycholic Acid 102.781)): 1207.36 RLU | RLU (Time (s) 104.797 (Chenodeoxycholic Acid 104.781)): 1232.88 RLU | RLU (Time (s) 106.797 (Chenodeoxycholic Acid 106.781)): 1256.04 RLU | RLU (Time (s) 108.797 (Chenodeoxycholic Acid 108.781)): 1236.19 RLU | RLU (Time (s) 110.797 (Chenodeoxycholic Acid 110.781)): 1242.72 RLU | RLU (Time (s) 112.797 (Chenodeoxycholic Acid 112.781)): 1266.26 RLU | RLU (Time (s) 114.797 (Chenodeoxycholic Acid 114.781)): 1269.15 RLU | RLU (Time (s) 116.797 (Chenodeoxycholic Acid 116.781)): 1265.61 RLU | RLU (Time (s) 118.797 (Chenodeoxycholic Acid 118.781)): 1260.33 RLU | RLU (Time (s) 120.797 (Chenodeoxycholic Acid 120.781)): 1305.24 RLU | RLU (Time (s) 122.797 (Chenodeoxycholic Acid 122.781)): 1269.8 RLU | RLU (Time (s) 124.797 (Chenodeoxycholic Acid 124.781)): 1271.64 RLU | RLU (Time (s) 126.797 (Chenodeoxycholic Acid 126.781)): 1263.68 RLU | RLU (Time (s) 128.797 (Chenodeoxycholic Acid 128.781)): 1291.8 RLU | RLU (Time (s) 130.797 (Chenodeoxycholic Acid 130.781)): 1262.68 RLU | RLU (Time (s) 132.797 (Chenodeoxycholic Acid 132.781)): 1269.55 RLU | RLU (Time (s) 134.797 (Chenodeoxycholic Acid 134.781)): 1262.84 RLU | RLU (Time (s) 136.797 (Chenodeoxycholic Acid 136.781)): 1277.95 RLU | RLU (Time (s) 137.562 (Taurocholic Acid 137.563, Chenodeoxycholic Acid 137.546)): 1261.13 RLU | RLU (Time (s) 143.578 (Taurocholic Acid 143.563, Chenodeoxycholic Acid 143.546)): 1235.79 RLU | RLU (Time (s) 149.578 (Taurocholic Acid 149.563, Chenodeoxycholic Acid 149.546)): 1235.83 RLU | RLU (Time (s) 155.578 (Taurocholic Acid 155.563, Chenodeoxycholic Acid 155.546)): 1156.37 RLU | RLU (Time (s) 161.578 (Taurocholic Acid 161.563, Chenodeoxycholic Acid 161.546)): 1154.38 RLU | RLU (Time (s) 167.578 (Taurocholic Acid 167.563, Chenodeoxycholic Acid 167.546)): 1122.87 RLU | RLU (Time (s) 173.578 (Taurocholic Acid 173.563, Chenodeoxycholic Acid 173.546)): 1009.37 RLU | RLU (Time (s) 179.578 (Taurocholic Acid 179.563, Chenodeoxycholic Acid 179.546)): 994.85 RLU | RLU (Time (s) 191.578 (Taurocholic Acid 191.563, Chenodeoxycholic Acid 191.546)): 855.583 RLU | RLU (Time (s) 197.578 (Taurocholic Acid 197.563, Chenodeoxycholic Acid 197.546)): 818.047 RLU | RLU (Time (s) 209.578 (Taurocholic Acid 209.563, Chenodeoxycholic Acid 209.546)): 723.754 RLU | RLU (Time (s) 221.578 (Taurocholic Acid 221.563, Chenodeoxycholic Acid 221.546)): 629.159 RLU | RLU (Time (s) 233.578 (Taurocholic Acid 233.563, Chenodeoxycholic Acid 233.546)): 528.668 RLU | RLU (Time (s) 239.578 (Taurocholic Acid 239.563, Chenodeoxycholic Acid 239.546)): 477.512 RLU | RLU (Time (s) 245.578 (Taurocholic Acid 245.563, Chenodeoxycholic Acid 245.546)): 438.571 RLU | RLU (Time (s) 293.578 (Taurocholic Acid 293.563, Chenodeoxycholic Acid 293.546)): 221.346 RLU | RLU (Time (s) 299.578 (Taurocholic Acid 299.563, Chenodeoxycholic Acid 299.546)): 202.892 RLU | RLU (Time (s) 305.578 (Taurocholic Acid 305.563, Chenodeoxycholic Acid 305.546)): 181.254 RLU | RLU (Time (s) 311.578 (Taurocholic Acid 311.563, Chenodeoxycholic Acid 311.546)): 152.075 RLU | RLU (Time (s) 317.578 (Taurocholic Acid 317.563, Chenodeoxycholic Acid 317.546)): 165.461 RLU | RLU (Time (s) 323.578 (Taurocholic Acid 323.563, Chenodeoxycholic Acid 323.546)): 152.075 RLU | RLU (Time (s) 329.578 (Taurocholic Acid 329.563, Chenodeoxycholic Acid 329.546)): 111.269 RLU | RLU (Time (s) 335.578 (Taurocholic Acid 335.563, Chenodeoxycholic Acid 335.546)): 88.8846 RLU | RLU (Time (s) 341.578 (Taurocholic Acid 341.563, Chenodeoxycholic Acid 341.546)): 75.1088 RLU | RLU (Time (s) 347.578 (Taurocholic Acid 347.563, Chenodeoxycholic Acid 347.546)): 60.0955 RLU | RLU (Time (s) 353.578 (Taurocholic Acid 353.563, Chenodeoxycholic Acid 353.546)): 37.7794 RLU | RLU (Time (s) 359.578 (Taurocholic Acid 359.563, Chenodeoxycholic Acid 359.546)): 47.6877 RLU | Activation threshold concentration TAS2R14 (lowest concentration with significantly increased fluorescence vs empty vector (p < 0.01)): 300 µM

— article PMC10247784, “Physiological activation of human and mouse bitter taste receptors by bile acids” (Communications Biology, 2023)
